The values that follow come from patent US7175850B2, “Formulation for topical non-invasive application in vivo” (Idea AG, priority 1998, dated 2007).

The nature of series [1]: Biodistribution after epicutaneous application (blood, skin). The class given is in vivo, mice. Here is the method: Drug in the Carrier (Transfersome) Suspensions. The formulations used in the biodistribution studies were labelled with the tritiurated corticosteroids purchased from Amersham or ICN. Preparation of the formulations for the use in animals was done by dissolving all lipoids in methanol/chloroform (1/1 v/v) in the appropriate amounts and preparing a dry mixed lipid film under vacuum (≦10 Pa;≧12 h). The use of potentially harmful organic solvents or drying was entirely avoided in the manufacturing of human medications.
In vivo Experiments mainly involved 8–12 weeks old NMRI mice which were kept under standard laboratory conditions (3–5 per suspending cage; standard chew and water ad libitum; 12 h light/dark regime). Stressful or painful manipulations were always carried out under general injection anesthesia.
Biodistribution. The hair at the chosen skin site was trimmed with a pair of scissors to the length of ≦2 mm one day before experimentation. The precise application site on the upper back was marked and the appropriate amount (0.5 μL to 25 μL) and drug formulation was applied with a micro-pipette on the skin. After uniform distribution with the side of the same pipette tip, the application was left to dry.
Blood samples (20 μL) were taken from the tail end with a glass capillary. After 8 hours the animals were killed by heart puncture and the treated skin area was undermined and carefully excised. The outermost layers of the stratum corneum were collected by five tape-strippings. Subsequently, the residual skin tissue and other organ samples were prepared, destained and used for radioactivity counting. For the experiments with porcine skin, […] of full thickness organ was excised and fixed on a wet tissue. Several test areas of 1 cm^2 were then marked and treated further as in vivo.

Series [2] is described as follows: Ratio of corticosteroid concentration in blood and inner skin, calculated for humans.
Method: The area dose will normally be between 0.1 μg cm^−2 and 1 μg cm^−2, for the high and low potency drugs, respectively.

Regarding `C[C@]12CCC(=O)C=C1CC[C@@H]1[C@@H]2[C@@H](O)C[C@@]2(C)[C@H]1CC[C@]2(O)C(=O)CO` [Hydrocortisone, hydrocortisone], the “Ratio of corticosteroid concentration in the blood and in the 'inner skin' (mouse)” value worked out at 0 in series [1] (dose 0.5 μg/cm^−2, measured); 0.012 in series [1] (dose 4.9 μg/cm^−2, measured); 0.015 in series [1] (dose 49.5 μg/cm^−2, measured).
The corresponding values for `C[C@@H]1C[C@H]2[C@@H]3CCC4=CC(=O)C=C[C@]4(C)[C@@]3(F)[C@@H](O)C[C@]2(C)[C@@]1(O)C(=O)CO` [Dexamethasone, dexamethasone] are 0, 0.1 and 0.25.
For the molecule `CC1(C)O[C@@H]2C[C@H]3[C@@H]4CCC5=CC(=O)C=C[C@]5(C)[C@@]4(F)[C@@H](O)C[C@]3(C)[C@]2(C(=O)CO)O1` [Triamcinolone-acetonide, triamcinolone-acetonide], the “Ratio of corticosteroid concentration in the blood and in the 'inner skin' (human)” value is 0.00007 in series [2] (dose 1.3 μg/cm^−2), 0.00011 in series [2] (dose 13.2 μg/cm^−2) and 0.0001 in series [2] (dose 20.6 μg/cm^−2). Further, the “Ratio of corticosteroid concentration in the blood and in the 'inner skin' (mouse)” value in series [1] (dose 1.3 μg/cm^−2, measured) worked out at 0.02; in series [1] (dose 13.2 μg/cm^−2, measured) it was 0.04; in series [1] (dose 20.6 μg/cm^−2, measured), 0.03.
